This note sets out measurements from US9133104B2 (Chroma Therapeutics Ltd., priority 2005, dated 2015).

Where only a bound is given, the exact number is not on record here.

For assay [1], the target named is T1, histone deacetylase activity (HeLa nuclear extract).
T1 construct: Histone deacetylase activity from crude nuclear extract derived from HeLa cells was used for screening
Kind of assay: HDAC fluorescent activity assay (Biomol Fluor de Lys), HeLa nuclear extract. Particulars: Fluor de Lys substrate, IC50 range. Type of assay: biochemical. On the procedure: The ability of compounds to inhibit histone deacetylase activities was measured using the commercially available HDAC fluorescent activity assay from Biomol. In brief, the Fluor de Lys™ substrate, a lysine with an epsilon-amino acetylation, is incubated with the source of histone deacetylase activity (HeLa nuclear extract) in the presence or absence of inhibitor. Deacetylation of the substrate sensitises the substrate to Fluor de Lys™ developer, which generates a fluorophore. Thus, incubation of the substrate with a source of HDAC activity results in an increase in signal that is diminished in the presence of an HDAC inhibitor.
Data are expressed as a percentage of the control, measured in the absence of inhibitor, with background signal being subtracted from all samples, as follows:— % activity=((S^i−B)/(S^o−B))×100 where S^i is the signal in the presence of substrate, enzyme and inhibitor, S^o is the signal in the presence of substrate, enzyme and the vehicle in which the inhibitor is dissolved, and B is the background signal measured in the absence of enzyme.
IC50 values were determined by non-linear regression analysis, after fitting the results of eight data points to the equation for sigmoidal dose response with variable slope (% activity against log concentration of compound), using Graphpad Prism software.
Histone deacetylase activity from crude nuclear extract derived from HeLa cells was used for screening. The preparation, purchased from 4C (Seneffe, Belgium), was prepared from HeLa cells harvested whilst in exponential growth phase. The nuclear extract is prepared according to Dignam JD1983 Nucl. Acid. Res. 11, 1475-1489, snap frozen in liquid nitrogen and stored at −80° C. The final buffer composition was 20 mM Hepes, 100 mM KCl, 0.2 mM EDTA, 0.5 mM DTT, 0.2 mM PMSF and 20% (v/v) glycerol.

The subject of assay [2] is HUT cancer cell line. Kind of assay: Cell inhibition assay (SRB cell viability), HUT. Type of assay: cell-based. Particulars: HUT cells, 72 h, IC50 range. On the procedure: (§1) The corresponding cancer cell lines (Hela, U937 and HUT) growing in log phase were harvested and seeded at 1000 cells/well (200 ul final volume) into 96-well tissue culture plates. Following 24 h of cell growth cells were treated with compounds (final concentration of 20 uM). Plates were then re-incubated for a further 72 h before a sulphorhodamine B (SRB) cell viability assay was conducted according to Skehan 1990 J Natl Canc Inst 82, 1107-1112.
(§2) Data were expressed as a percentage inhibition of the control, measured in the absence of inhibitor, as follows:— % inhibition=100−((S^i/S^o)×100) where S^i is the signal in the presence of inhibitor and S^o is the signal in the presence of DMSO. IC50 values were determined by non-linear regression analysis, after fitting the results of eight data points to the equation for sigmoidal dose response with variable slope (% activity against log concentration of compound), using Graphpad Prism software. […] NT=Not tested

Assay [3] deals with U937 cancer cell line. The assay can be described thus: Cell inhibition assay (SRB cell viability), U937. Particulars: 72 h, IC50 range. Type of assay: cell-based. On the procedure: as §1, §2
Assay [4] has as its system Hela cancer cell line. The assay can be described thus: Cell inhibition assay (SRB cell viability), Hela. Type of assay: cell-based. The settings on record: 72 h, Hela cells, IC50 range. The procedure: as §1, §2
Setting [5] is: Homo sapiens, U-937, U937 cells.

Consider `O=C(CCCCCCC(=O)N1Cc2[nH]c3ccccc3c2C[C@@H]1C(=O)N[C@H](C(=O)OC1CCCC1)c1ccccc1)NO` [Compound 1, (S)-{[(R)-2-(7-Hydroxycarbamoyl-heptanoyl)-2,3,4,9-tetrahydro-1H-beta-carboline-3-carbonyl]-amino}-phenyl-acetic acid cyclopentyl ester], for which the IC50 – broadly, the concentration that inhibits the measured activity by half – is 0.101 to 1 µM in assay [1]; 0.33 to 3.3 µM in assay [2]; 0.33 to 3.3 µM in assay [3] (setting [5]); over 3.3 µM in assay [4] (Homo sapiens, HeLa).

For `O=C(CCCCCCC(=O)N1Cc2[nH]c3ccccc3c2C[C@H]1C(=O)N[C@H](C(=O)OC1CCCC1)c1ccccc1)NO` [Compound 3, (S)-{[(S)-2-(7-Hydroxycarbamoyl-heptanoyl)-2,3,4,9-tetrahydro-1H-beta-carboline-3-carbonyl]-amino}-phenyl-acetic acid cyclopentyl ester], the IC50 in assay [1] is over 1 µM; in assay [2], over 3.3 µM; in assay [3] (setting [5]), 0.33 to 3.3 µM; in assay [4] (Homo sapiens, HeLa) it was over 3.3 µM.

For `O=C(CCCCCCC(=O)N1Cc2[nH]c3ccccc3c2C[C@H]1C(=O)N[C@H](C(=O)O)c1ccccc1)NO` [Compound 4, (S)-{[(S)-2-(7-Hydroxycarbamoyl-heptanoyl)-2,3,4,9-tetrahydro-1H-beta-carboline-3-carbonyl]-amino}-phenyl-acetic acid], the IC50 is 0.101 to 1 µM in assay [1]; over 3.3 µM in assay [2]; over 3.3 µM in assay [3] (setting [5]); over 3.3 µM in assay [4] (Homo sapiens, HeLa).

Regarding `CCOC(=O)[C@H](Cc1ccccc1)NC(=O)[C@H]1Cc2c([nH]c3ccccc23)CN1C(=O)CCCCCCC(=O)NO` [Compound 5, (S)-2-{[(R)-2-(7-Hydroxycarbamoyl-heptanoyl)-2,3,4,9-tetrahydro-1H-beta-carboline-3-carbonyl]-amino}-3-phenyl-propionic acid ethyl ester], the IC50 in assay [1] is 0.101 to 1 µM; in assay [2], 0.33 to 3.3 µM; in assay [3] (setting [5]), 0.33 to 3.3 µM; in assay [4] (Homo sapiens, HeLa), 0.33 to 3.3 µM.

Take `O=C(CCCCCCC(=O)N1Cc2[nH]c3ccccc3c2C[C@@H]1C(=O)N[C@@H](Cc1ccccc1)C(=O)O)NO` [Compound 6, (S)-2-{[(R)-2-(7-Hydroxycarbamoyl-heptanoyl)-2,3,4,9-tetrahydro-1H-beta-carboline-3-carbonyl]-amino}-3-phenyl-propionic acid]: the IC50 in assay [1] is under 0.1 µM; in assay [2] it was over 3.3 µM; in assay [3] (setting [5]), over 3.3 µM; in assay [4] (Homo sapiens, HeLa) it was over 3.3 µM.

Consider `CCOC(=O)[C@H](Cc1ccccc1)NC(=O)[C@@H]1Cc2c([nH]c3ccccc23)CN1C(=O)CCCCCCC(=O)NO` [Compound 7, (S)-2-{[(S)-2-(7-Hydroxycarbamoyl-heptanoyl)-2,3,4,9-tetrahydro-1H-beta-carboline-3-carbonyl]-amino}-3-phenyl-propionic acid ethyl ester], for which the IC50 is 0.101 to 1 µM in assay [1]; 0.33 to 3.3 µM in assay [2]; 0.33 to 3.3 µM in assay [3] (setting [5]); over 3.3 µM in assay [4] (Homo sapiens, HeLa).

Turning to `O=C(CCCCCCC(=O)N1Cc2[nH]c3ccccc3c2C[C@H]1C(=O)N[C@@H](Cc1ccccc1)C(=O)O)NO` [Compound 8, (S)-2-{[(S)-2-(7-Hydroxycarbamoyl-heptanoyl)-2,3,4,9-tetrahydro-1H-beta-carboline-3-carbonyl]-amino}-3-phenyl-propionic acid], the IC50 in assay [1] was 0.101 to 1 µM; in assay [2] it was over 3.3 µM; in assay [3] (setting [5]), over 3.3 µM; in assay [4] (Homo sapiens, HeLa), over 3.3 µM.

Turning to `O=C(CCCCCCC(=O)N1CCc2c([nH]c3ccccc23)C1C(=O)NC(C(=O)OC1CCCC1)c1ccccc1)NO` [Compound 9, (S)-{[2-(7-Hydroxycarbarnoyl-heptanoyl)-2,3,4,9-tetrahydro-1H-beta-carboline-1-carbonyl]-amino}-phenyl-acetic acid cyclopentyl ester], the concentration for half-maximal inhibition (IC50) in assay [1] lay in the range of 0.101 to 1 µM; in assay [2], 0.33 to 3.3 µM; in assay [3] (setting [5]) it was 0.33 to 3.3 µM; in assay [4] (Homo sapiens, HeLa) it was 0.33 to 3.3 µM.

Consider `O=C(CCCCCCC(=O)N1CCc2c([nH]c3ccccc23)C1C(=O)N[C@H](C(=O)O)c1ccccc1)NO` (stereo partly drawn) [Compound 10, (S)-{[2-(7-Hydroxycarbamoyl-heptanoyl)-2,3,4,9-tetrahydro-1H-beta-carboline-1-carbonyl]amino}-phenyl-acetic acid], for which the IC50 was under 0.1 µM in assay [1]; over 3.3 µM in assay [2]; over 3.3 µM in assay [3] (setting [5]); over 3.3 µM in assay [4] (Homo sapiens, HeLa).

For the molecule `COc1ccc2[nH]c3c(c2c1)CCN(C(=O)CCCCCCC(=O)NO)C3C(=O)N[C@H](C(=O)OC1CCCC1)c1ccccc1` (stereo partly drawn) [Compound 11, (S)-{[2-(7-Hydroxycarbamoyl-heptanoyl)-6-methoxy-2,3,4,9-tetrahydro-1H-beta-carboline-1-carbonyl]-amino}-phenyl-acetic acid cyclopentyl ester], the IC50 in assay [1] was in the range of 0.101 to 1 µM; in assay [2] it was 0.33 to 3.3 µM; in assay [3] (setting [5]), 0.33 to 3.3 µM; in assay [4], 0.33 to 3.3 µM.

Turning to `COc1ccc2[nH]c3c(c2c1)CCN(C(=O)CCCCCCC(=O)NO)C3C(=O)N[C@H](C(=O)O)c1ccccc1` (stereo partly drawn) [Compound 12, (S)-{[2-(7-Hydroxycarbamoyl-heptanoyl)-6-methoxy-2,3,4,9-tetrahydro-1H-beta-carboline-1-carbonyl]-amino}-phenyl-acetic acid], the IC50 is 0.101 to 1 µM in assay [1]; over 3.3 µM in assay [2]; over 3.3 µM in assay [3] (setting [5]); over 3.3 µM in assay [4] (Homo sapiens, HeLa).

Take `COc1ccc2[nH]c3c(c2c1)CCN(C(=O)CCCCCCC(=O)NO)C3C(=O)N[C@H](C(=O)OC1CCCC1)c1ccccc1` (stereo partly drawn) [Compound 13, (S)-{[2-(7-Hydroxycarbamoyl-heptanoyl)-6-methoxy-2,3,4,9-tetrahydro-1H-beta-carboline-1-carbonyl]amino}-phenyl-acetic acid cyclopentyl ester]: the IC50 in assay [1] is 0.101 to 1 µM; in assay [2] it was 0.33 to 3.3 µM; in assay [3] (U937 cells), 0.33 to 3.3 µM; in assay [4], over 3.3 µM.

Take `COc1ccc2[nH]c3c(c2c1)CCN(C(=O)CCCCCCC(=O)NO)C3C(=O)N[C@H](C(=O)O)c1ccccc1` (stereo partly drawn) [Compound 14, (S)-{[2-(7-Hydroxycarbamoyl-heptanoyl)-6-methoxy-2,3,4,9-tetrahydro-1H-beta-carboline-1-carbonyl]-amino}-phenyl-acetic acid]: the half-inhibitory concentration (IC50) in assay [1] was 0.101 to 1 µM; in assay [2], over 3.3 µM; in assay [3] (U937 cells), over 3.3 µM; in assay [4], over 3.3 µM.

As to `O=C(CCCCCCC(=O)N1CCc2ccc(C(=O)N[C@H](C(=O)OC3CCCC3)c3ccccc3)cc2C1)NO` [Compound 15, (S)-{[2-(7-Hydroxycarbamoyl-heptanoyl)-1,2,3,4-tetrahydro-isoquinoline-7-carbonyl]-amino}-phenyl-acetic acid cyclopentyl ester], the IC50 was over 1 µM in assay [1]; 0.33 to 3.3 µM in assay [2]; 0.33 to 3.3 µM in assay [3] (setting [5]); over 3.3 µM in assay [4] (Homo sapiens, HeLa).

Take `O=C(CCCCCCC(=O)N1CCc2ccc(C(=O)N[C@H](C(=O)O)c3ccccc3)cc2C1)NO` [Compound 16, (S)-{[2-(7-Hydroxycarbamoyl-heptanoyl)-1,2,3,4-tetrahydro-isoquinoline-7-carbonyl]-amino}-phenyl-acetic acid]: the IC50 in assay [1] was over 1 µM; in assay [2] it was over 3.3 µM; in assay [3] (setting [5]) it was over 3.3 µM; in assay [4] (Homo sapiens, HeLa), over 3.3 µM.

With `O=C(CCCCCCC(=O)Nc1ccc(C(=O)N[C@H](C(=O)OC2CCCC2)c2ccccc2)cc1)NO` [Compound 17, (S)-[4-(7-Hydroxycarbamoyl-heptanoylamino)-benzoylamino]-phenyl-acetic acid cyclopentyl ester], the IC50 in assay [1] is 0.101 to 1 µM; in assay [2], 0.33 to 3.3 µM; in assay [3] (setting [5]) it was 0.33 to 3.3 µM; in assay [4] (Homo sapiens, HeLa) it was over 3.3 µM.

Take `O=C(CCCCCCC(=O)Nc1ccc(C(=O)N[C@H](C(=O)O)c2ccccc2)cc1)NO` [Compound 18, (S)-[4-(7-Hydroxycarbamoyl-heptanoylamino)-benzoylamino]-phenyl-acetic acid]: the IC50 in assay [1] was 0.101 to 1 µM; in assay [2], over 3.3 µM; in assay [3] (setting [5]), over 3.3 µM; in assay [4] (Homo sapiens, HeLa), over 3.3 µM.
